Source: patent publication US20250110152A1, “METHOD FOR CHARACTERIZING INTERACTION FORCE BETWEEN LIGNIN AND CELLULASE” (NANJING FORESTRY UNIVERSITY, priority 2022, published 2025)

Test system: cellulase
Test: AFM test of lignin-cellulase interaction force and dissociation rate in liquid phase environment (cellulase-modified AFM probe, lignin film)
Details: for interaction force between lignin / lignin model substance and cellulase: AFM force-displacement curves, liquid phase; for Feq: system lignin (model substance)-cellulase

SMILES | interaction force between lignin / lignin model substance and cellulase [nN] | most likely dissociation force (loading rate 3 pN/s) [nN] | most likely dissociation force (loading rate 10 pN/s) [nN] | Feq [nN] | most likely dissociation force (loading rate 5 pN/s) [nN] | most likely dissociation force (loading rate 15 pN/s) [nN] | most likely dissociation force (loading rate 20 pN/s) [nN] | other results
COc1ccccc1O [GA] | 0.58 | 0.39 | 0.88 | 0.58 |  |  |  | most likely dissociation force (loading rate 4 pN/s): 0.41 nN; most likely dissociation force (loading rate 6.61 pN/s): 0.58 nN; most likely dissociation force (loading rate 9 pN/s): 0.63 nN
COc1cc(C(O)C(CO)Oc2ccccc2OC)ccc1O (stereo not shown) [GG] | 2.59 |  | 1.92 | 2.59 | 1.65 | 2.27 | 2.46 | most likely dissociation force (loading rate 24.24 pN/s): 2.59 nN
CCCc1ccc(O)c(OC)c1 [G] | 0.97 | 0.87 |  | 0.97 |  |  |  | most likely dissociation force (loading rate 1 pN/s): 0.39 nN; most likely dissociation force (loading rate 5.74 pN/s): 0.97 nN; most likely dissociation force (loading rate 7 pN/s): 1.06 nN; most likely dissociation force (loading rate 12 pN/s): 1.25 nN
O=C(O)/C=C/c1ccc(O)cc1 [H] | 12.52 |  | 10.04 | 12.52 | 5.00 | 11.29 | 12.52 | most likely dissociation force (loading rate 7 pN/s): 5.49 nN
COc1ccccc1OC(CO)C(O)c1cc(OC)c(O)c(OC)c1 (stereo not shown) [SG] | 11.69 |  | 7.65 | 11.69 |  | 8.80 |  | most likely dissociation force (loading rate 13 pN/s): 8.25 nN; most likely dissociation force (loading rate 18.64 pN/s): 11.69 nN; most likely dissociation force (loading rate 23 pN/s): 13.40 nN
COc1cccc(OC)c1O [S] | 4.76 | 3.02 |  | 4.76 | 4.05 |  | 8.54 | most likely dissociation force (loading rate 7.89 pN/s): 4.76 nN; most likely dissociation force (loading rate 12 pN/s): 5.21 nN
COc1cc(/C=C/CO)cc(OC)c1O [S—OH] | 4.31 | 3.99 | 4.58 | 4.31 |  |  |  | most likely dissociation force (loading rate 1 pN/s): 2.66 nN; most likely dissociation force (loading rate 5.79 pN/s): 4.31 nN; most likely dissociation force (loading rate 18 pN/s): 6.58 nN
